{
  "source": "patent US20110293745A1",
  "about": "“AURORA KINASE INHIBITORS” (SUNESIS PHARMACEUTICALS, INC., priority 2008, published 2011)",
  "key": {"[1]": {"system": "HCT 116 colon cancer xenograft", "assay": "In vivo efficacy, mouse xenograft", "procedure": "HCT 116 colon cancer cells [200 μL of a 2.5×10^7 cells/mL suspension (1:1 DPBS with cells:Matrigel)] were subcutaneously implanted in the right hind flank of female nu/nu athymic mice. After 7 days, when tumors reached an average volume of approximately 200 mm^3, animals were weighed, randomized by tumor volume (l×w×h×0.52), and assigned to the various study groups before initial dosing.\n[…]. The animals on the twice-weekly schedule received compound on Days 1, 4, 8, 11, 15 and 18. […].\nPercent TGI is then calculated with the following equation: […]\nwhere TVt is the average tumor volume on Day 10 and TV, is the initial average tumor volume. ANOVA was performed to calculate statistical significance, defined as p<0.05.\nTime To Endpoint (TTE) was calculated for each individual animal to reach the predetermined study end point where the tumor volume becomes 1200 mm^3 or 10% of body weight or a greater than 20% body weight loss for two sequential measurements. The TTE is calculated and the median value is recorded for the group. Tumor Growth Delay (TGD) is then calculated with the following equation:\nTGD=median TTEtreatment−median TTEcontrol"}, "HCT 116 tumor xenograft": {"system": "HCT 116 tumor xenograft", "assay": "Microscopy of tumor sections (Caspase-3, H&E)", "format": "in vivo, mouse", "details": "170 mg/kg twice-weekly for three weeks", "procedure": "The studies in Examples 20, 21, and 22 used female mice nu/nu athymic mice. Compound 1 was formulated fresh each week for dosing.\nHCT 116 colorectal carcinoma cells were implanted in the animals' right hind flanks subcutaneously with 200 μL of a 2.5×10^7 cells/mL suspension [1:1 Dulbecco's PBS (DPBS) with cells:Matrigel™. For each of the studies of compound distribution, pHH3 levels, and tumor section microscopy, after the tumors reached an average volume of 500 mm^3, the animals were weighed and sorted into randomized groups before initial dosing. Dosing schedules are provided separately for each of the studies in Examples 28, 29, and 30.\nFollowing the treatment, tumors were harvested, placed in Streck fixative, paraffin embedded, sectioned, and transferred to slides. Tumor sections were stained with hematoxylin and eosin (H&E). Hematoxylin stains negatively charged nucleic acid structures, such as nuclei and ribosomes, blue, whereas eosin stains proteins pink. Treatments were administered on Day 1, 4, 8, 11, 15, and 18, with tumors being excised Day 4, 11, 18, and 25 of the study. All images in this Figure were taken at 40× magnification."}, "HCT 116 cells": {"system": "HCT 116 cells", "assay": "Flow cytometry, DNA content (propidium iodide)", "format": "cell-based, human", "details": "36 nM, 16 hours", "procedure": "HCT 116 cells were seeded at 10,000 cells per well in 12-well plates and cells were incubated 24 hr at 37° C. […] After 16 hrs, media was aspirated and placed in a labeled collection tube, cells were trypsinized with 100 μL trypsin for 5 min at room temperature, quenched with fresh media, and placed in the collection tube with their appropriate media aspirate. Cells were spun at 2000 RPM for 5 min, supernatant was aspirated, and cells were re-suspended in 50 μl, 1× phosphate buffered saline (PBS) and 200 μL 100% methanol. Samples were then placed at −20° C. Cells fixed in methanol were spun at 2000 RPM for 5 min, supernatant was removed and cells were washed with 500 μL 0.1% bovine serum albumin (BSA) in PBS. Cells were re-suspended in 100 μL propidium iodide (PI) staining solution [prepared from 10 μg/mL PI (Sigma #P4864), 100 μg/mL RNase (Sigma #R4642) in PBS] and incubated at 37° C. for 1 hr. Cell populations were then analyzed by flow cytometry on Fluorescence-Activated Cell Sorter (FACS) instrumentation (FACSCalibur; Becton-Dickinson) according to common techniques. The distribution of cells in the various phases of cell cycle was assessed by propidium iodide (PI) staining of DNA. The total intensity of PI was considered to reflect the DNA content of cells."}, "HT-29": {"system": "HT-29", "assay": "cells", "details": "Homo sapiens, HT-29, 96 h, read-out: BrdU IC50", "protocol": "Cellular proliferation was assessed using the Cell Proliferation ELISA, bromodeoxyuridine (BrdU) kit (Roche) including reagents, according to the kit protocol."}, "[2]": {"system": "pHH3 in HCT 116 tumor xenograft", "assay": "Phospho-histone H3 in vivo (Western blot of tumor)", "design": "species or system mouse", "details": "single 50 mg/kg and 100 mg/kg IP; 3 hr, 6 hr, 10 hr post administration", "source_text": "For each of the studies of compound distribution, pHH3 levels, and tumor section microscopy, after the tumors reached an average volume of 500 mm^3, the animals were weighed and sorted into randomized groups before initial dosing."}, "[3]": {"assay": "Protein binding, Rapid Equilibrium Dialysis", "format": "in vitro ADME", "details": "15 μM", "procedure": "Studies were performed using the Rapid Equilibrium Dialysis (RED) device (Linden Bioscience). Inserts were soaked in water for 10 min×2, then removed and drained immediately prior to use. […] All experiments were performed in duplicate and each chamber was sampled in duplicate. The samples were incubated for 4-6 h at 37° C. in a rotating incubator (100 rpm). Compound 2 was quantified using LC-MS/MS. Data from duplicate samples each sampled twice."}, "[4]": {"assay": "Bioavailability profile, IV, IP and PO", "format": "in vivo, mice", "details": "for F: mice, 50 mg/kg Compound 1, bioavailability", "source_text": "Pharmacokinetic parameters were estimated using noncompartmental analysis within WinNonlin v. 4.1. […] For rising dose experiments measuring exposure for each species, sets containing several animals were singly dosed at a given dose. […] Abbreviations are as in Table 18; F is fraction of dose absorbed."}, "[5]": {"assay": "Pharmacokinetics, single bolus intravenous injection", "format": "in vivo, CD-1 mice", "details": "CD-1, mouse, plasma, 5 mg/kg", "source_text": "Pharmacokinetic parameters were estimated using noncompartmental analysis within WinNonlin v. 4.1. Quantification of Compound 2 was done by HPLC-MS/MS after extraction from plasma with acetonitrile. […] For rising dose experiments measuring exposure for each species, sets containing several animals were singly dosed at a given dose. Results from single-dose experiments are shown in FIG. 10A, Table 43, and in FIG. 10B and Table 44, respectively. […] C0 is initial concentration extrapolated to time zero. AUCINF is area under the plasma-concentration time curve from time zero extrapolated to the infinite time. CL is clearance; Vss is steady state volume of distribution. T1/2 is half-life."}, "[6]": {"details": "HCT 116 (Colon), 75 mg/kg biw × 3"}, "[7]": {"details": "HCT 116 (Colon), 100 mg/kg biw × 3"}, "[8]": {"details": "HCT 116 (Colon), 150 mg/kg biw × 3"}, "[9]": {"details": "CD-1, mouse, plasma, ip, 50 mg/kg"}, "[10]": {"details": "CD-1, mouse, plasma, iv, 50 mg/kg"}, "[11]": {"details": "CD-1, mouse, plasma, po, 50 mg/kg"}},
  "data": [
    {"smiles": "CS(=O)(=O)O.O=C(Nc1cccc(Cl)c1)Nc1ncc(CCNc2ncnc3ccsc23)s1", "note": "[Compound 1, 1-(3-chlorophenyl)-3-{5-[2-(thieno[3,2-d]pyrimidin-4-ylamino)ethyl]thiazo}-urea]", "values": [
      {"measurement": "TGD", "setting": "[1]; 100 mg/kg, qd × 5, 9 d off × 2", "value": 45, "unit": "days"},
      {"measurement": "TGD", "setting": "[1]; 125 mg/kg, Qw × 3", "value": 22.5, "unit": "days"},
      {"measurement": "TGD", "setting": "[1]; 150 mg/kg, biw × 3", "value": 32.5, "unit": "days"},
      {"measurement": "% TGI", "setting": "[1]; [6]", "value": 67.5, "unit": "%"},
      {"measurement": "TGD", "setting": "[1]; [6]", "value": 22, "unit": "days"},
      {"measurement": "% TGI", "setting": "[1]; [7]", "value": 79.4, "unit": "%"},
      {"measurement": "TGD", "setting": "[1]; [7]", "value": 25.1, "unit": "days"},
      {"measurement": "% TGI", "setting": "[1]; [8]", "value": 95.6, "unit": "%"},
      {"measurement": "TGD", "setting": "[1]; [8]", "value": 32.5, "unit": "days"},
      {"measurement": "large polyploid cells in tumor", "setting": "HCT 116 tumor xenograft", "value": "appeared by Day 4 and persisted for at least 25 days"},
      {"measurement": "caspase-3 positive cells in tumor versus vehicle", "setting": "HCT 116 tumor xenograft; up to 18 days", "value": "significant increase"},
      {"measurement": "DNA content of cells", "setting": "HCT 116 cells", "value": "predominantly 4N and 8N DNA content"},
      {"measurement": "IC50", "setting": "HT-29", "value": 24.4, "unit": "nM"},
      {"measurement": "level of pHH3 in tumor versus vehicle-treated mice", "setting": "[2]", "value": "decreased"}
    ]},
    {"smiles": "O=C(Nc1cccc(Cl)c1)Nc1ncc(CCNc2ncnc3ccsc23)s1", "note": "[Compound 2, 1-(3-chlorophenyl)-3-{5-[2-(thieno[3,2-d]pyrimidin-4-ylamino)ethyl]thiazol-2-yl}-urea]", "values": [
      {"measurement": "mean percentage protein-bound", "setting": "[3]; dog plasma", "value": "greater than or equal to 99.9%"},
      {"measurement": "mean percentage protein-bound", "setting": "[3]; human plasma", "value": "greater than or equal to 99.9%"},
      {"measurement": "mean percentage protein-bound", "setting": "[3]; mouse plasma", "value": "greater than or equal to 99.9%"},
      {"measurement": "AUC(0-inf)", "setting": "[4]; [9]", "value": 46200, "unit": "ng·h/mL"},
      {"measurement": "half-life", "setting": "[4]; [9]", "value": 0.7, "unit": "h"},
      {"measurement": "AUC(0-inf)", "setting": "[4]; [10]", "value": 43600, "unit": "ng·h/mL"},
      {"measurement": "C0", "setting": "[4]; [10]", "value": 42000, "unit": "ng/mL"},
      {"measurement": "clearance", "setting": "[4]; [10]", "value": 19.1, "unit": "mL/min/kg"},
      {"measurement": "half-life", "setting": "[4]; [10]", "value": 0.8, "unit": "h"},
      {"measurement": "Vd", "setting": "[4]; CD-1, mouse, plasma, iv, 50 mg/kg, read-out: Vss", "value": 1.2, "unit": "L/kg"},
      {"measurement": "AUC(0-inf)", "setting": "[4]; [11]", "value": 28300, "unit": "ng·h/mL"},
      {"measurement": "half-life", "setting": "[4]; [11]", "value": 3.3, "unit": "h"},
      {"measurement": "F", "setting": "[4]; IP", "value": 106, "unit": "%"},
      {"measurement": "F", "setting": "[4]; PO", "value": 65, "unit": "%"},
      {"measurement": "AUC(0-inf)", "setting": "[5]", "value": 1800, "unit": "ng·h/mL"},
      {"measurement": "C0", "setting": "[5]", "value": 7100, "unit": "ng/mL"},
      {"measurement": "clearance", "setting": "[5]", "value": 47.6, "unit": "mL/min/kg"},
      {"measurement": "half-life", "setting": "[5]", "value": 1.4, "unit": "h"},
      {"measurement": "Vd", "setting": "[5]; read-out: Vss", "value": 1, "unit": "L/kg"}
    ]}
  ]
}
